Experiments:
[1] = tested on: BmMDH2 free of metal ions; experiment: EDTA treatment of BmMDH2 and recovery of activity with metal ions; type: biochemical, Bacillus methanolicus MGA3
Procedure: To further characterize the specific activity of BmMDH2 containing different metal ions, the purified BmMDH2 was treated with EDTA to remove the metal ions it coordinated during expression or purification. The protein was incubated with 10 equivalents of EDTA in glycine-NaOH buffer (100 mM, pH 9.5) on the ice for 1 hour. Subsequently, the EDTA was removed from the protein using the HiTrap desalting column (Cytiva, CAT#17-1408-01). […] The BmMDH2 free of metal ions at 10 μM was incubated in glycine-NaOH buffer (100 mM, pH 9.5) containing 1 mM of various metal ions on ice for 1 h, followed by the analysis of the activity. […] Overall, the above results indicated the optimum metal ion for BmMDH2 activity was Mn^2+, which was also supplied in the rest of the research.
(§1) Fig. S12 The effect of metal ions on the activity of BmMDH2. a, The effect of metal ions on the activity of BmMDH2. The purified BmMDH2 at 10 μM was incubated with 1 mM of various metal ions on ice for 1 h, the enzyme activities were measured using 50 mM propanol as substrate at 37 °C. The activity of BmMDH2 incubated in the absence of metal ion was taken as 100%. Data are means ± SDs of three measurements. b. The recovery activity of metal ions-free BmMDH2 replenished with various metal ions. The metal ions in BmMDH2 were chelated with EDTA. The activity of BmMDH2 with Mn^2+ replenishment was taken as 100%. Data are means ± SDs of three measurements.

BmMDH2 = BmMDH2 (Bacillus methanolicus, UniProt I3E949); experiment: Effect of metal ions on the activity of purified BmMDH2; type: biochemical; details: 1 mM metal ion, on ice 1 h; 50 mM propanol, 37 °C
Procedure: As a first step, different metal ions were directly incubated with BmMDH2 to determine their impact on its activity. The purified BmMDH2 was diluted to 10 μM in glycine-NaOH buffer (100 mM, pH 9.5) containing 1 mM of various metal ions. After incubation on ice for 1 h, the enzymatic activities were measured in glycine-NaOH buffer (100 mM, pH 9.5) containing 3 mM NAD^+, 1 μM BmMDH2, 0.1 mM various metal ions and 50 mM propanol at 37 °C.
as §1, with “The” for “Fig. S12 The effect of metal ions on the activity of BmMDH2. a, The effect of metal ions on the activity of BmMDH2. The”

Chain of BmMDH2 (I3E949 entry or part of it): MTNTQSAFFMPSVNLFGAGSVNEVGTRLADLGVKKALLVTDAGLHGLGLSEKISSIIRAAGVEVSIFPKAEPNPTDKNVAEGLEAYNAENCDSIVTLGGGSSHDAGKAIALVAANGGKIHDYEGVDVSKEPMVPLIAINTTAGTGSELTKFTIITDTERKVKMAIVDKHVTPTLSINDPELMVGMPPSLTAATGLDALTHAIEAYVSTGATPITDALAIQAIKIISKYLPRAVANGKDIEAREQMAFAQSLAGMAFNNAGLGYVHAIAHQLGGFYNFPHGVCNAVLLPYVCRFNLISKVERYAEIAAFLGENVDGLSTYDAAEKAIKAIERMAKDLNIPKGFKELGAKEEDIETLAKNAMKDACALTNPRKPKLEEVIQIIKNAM

SMILES | recovery of activity of metal-free BmMDH2 ([1]; 1 mM metal ion, on ice 1 h) | effect of metal ion on BmMDH2 activity (BmMDH2) | activity of metal-free BmMDH2 replenished with metal ion ([1]; 1 mM metal ion, on ice 1 h) | BmMDH2 activity after EDTA treatment ([1]; 10 equivalents of EDTA, pH 9.5, on ice 1 hour)
[Ca+2] [Ca^2+] | didn’t restore the activity | slightly decreased | – | –
[Fe+2] [Fe^2+] | – | negligible effect | – | –
[Cu+2] [Cu^2+] | didn’t restore the activity | significantly inhibited | – | –
[Mg+2] [Mg^2+] | didn’t restore the activity | slightly decreased | – | –
[Ni+2] [Ni^2+] | – | slightly decreased | – | –
[Mn+2] [Mn^2+] | – | significantly enhanced | 1.04 ± 0.02 U/mg | –
[Co+2] [Co^2+] | – | significantly enhanced | – | –
O=C(O)CN(CCN(CC(=O)O)CC(=O)O)CC(=O)O [EDTA, reference compound] | – | – | – | completely lost
[Zn+2] [Zn^2+] | didn’t restore the activity | significantly inhibited | – | –
